target: recombinant full length HPK-1 enzyme (Homo sapiens (Human), UniProt Q92918); experiment: HPK-1 biochemical enzyme assay (ADP-Glo kinase inhibition); conditions: recombinant full length HPK-1 6.8 nM, 10 μM ATP, 12.5 μM MBP, 30 mins at 25° C.
Summary of the method: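 Recombinant full-length human HPK-1 (6.8 nM) incubated 30 min at 25° C. with 10 μM ATP and 12.5 μM swine MBP in 40 mM Tris pH 7.4, 20 mM MgCl2, 50 μM DTT, 0.1 mg/mL BSA. ADP measured by ADP-Glo; IC50 from 10 concentrations, normalized to no-enzyme and vehicle controls.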

recombinant full length HPK-1 enzyme, sequence (Q92918 whole entry, species assumed): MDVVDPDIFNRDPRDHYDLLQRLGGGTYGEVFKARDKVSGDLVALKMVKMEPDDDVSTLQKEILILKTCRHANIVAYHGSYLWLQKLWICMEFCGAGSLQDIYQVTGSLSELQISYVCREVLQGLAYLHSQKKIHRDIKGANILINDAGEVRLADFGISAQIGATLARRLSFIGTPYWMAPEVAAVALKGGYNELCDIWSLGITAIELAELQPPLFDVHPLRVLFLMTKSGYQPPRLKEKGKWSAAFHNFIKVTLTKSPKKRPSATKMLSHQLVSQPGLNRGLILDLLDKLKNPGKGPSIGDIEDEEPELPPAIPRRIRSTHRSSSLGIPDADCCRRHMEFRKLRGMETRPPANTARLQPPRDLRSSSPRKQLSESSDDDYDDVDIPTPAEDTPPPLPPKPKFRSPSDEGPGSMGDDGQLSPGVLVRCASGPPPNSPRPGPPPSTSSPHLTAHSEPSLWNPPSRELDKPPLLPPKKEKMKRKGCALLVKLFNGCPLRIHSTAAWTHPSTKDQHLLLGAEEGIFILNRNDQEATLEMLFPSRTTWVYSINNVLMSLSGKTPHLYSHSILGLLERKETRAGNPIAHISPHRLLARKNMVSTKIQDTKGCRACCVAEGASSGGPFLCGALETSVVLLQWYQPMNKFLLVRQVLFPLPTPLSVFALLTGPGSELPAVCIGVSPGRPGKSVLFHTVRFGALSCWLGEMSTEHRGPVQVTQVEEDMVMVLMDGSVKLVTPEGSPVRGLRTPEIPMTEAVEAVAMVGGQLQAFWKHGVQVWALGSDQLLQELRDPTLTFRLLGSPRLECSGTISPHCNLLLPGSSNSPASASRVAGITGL

Row | SMILES | IC50
1 | Cc1c(Nc2cc[nH]c(=O)c2C(=O)Nc2ccc(N3CCN(C)CC3)c(C(=O)N(C)C)c2)cnc2c1NCCO2 [Example 208, N-(3-(dimethylcarbamoyl)-4-(4-methylpiperazin-1-yl)phenyl)-4-((8-methyl-2,3-dihydro-1H-pyrido[2,3-b][1,4]oxazin-7-yl)amino)-2-oxo-1,2-dihydropyridine-3-carboxamide] | 100 to 1000 nM
2 | Cc1c(Nc2cc[nH]c(=O)c2C(=O)Nc2ccc(NC3CCN(C)CC3)cc2)cnc2c1NCCO2 [Example 209, 4-((8-methyl-2,3-dihydro-1H-pyrido[2,3-b][1,4]oxazin-7-yl)amino)-N-(4-((1-methylpiperidin-4-yl)amino)phenyl)-2-oxo-1,2-dihydropyridine-3-carboxamide] | 10 to 100 nM
3 | Cc1c(Nc2cc[nH]c(=O)c2C(=O)Nc2ccc(S(N)(=O)=O)cc2)cnc2c1NCCO2 [Example 210, 4-((8-methyl-2,3-dihydro-1H-pyrido[2,3-b][1,4]oxazin-7-yl)amino)-2-oxo-N-(4-sulfamoylphenyl)-1,2-dihydropyridine-3-carboxamide] | 10 to 100 nM
4 | Cc1c(Nc2cc[nH]c(=O)c2C(=O)Nc2ccc(N3CCN(C)CC3)c(-n3cnnc3)c2)cnc2c1NCCO2 [Example 211, 4-((8-methyl-2,3-dihydro-1H-pyrido[2,3-b][1,4]oxazin-7-yl)amino)-N-(4-(4-methylpiperazin-1-yl)-3-(4H-1,2,4-triazol-4-yl)phenyl)-2-oxo-1,2-dihydropyridine-3-carboxamide] | 10 to 100 nM
5 | Cc1c(Nc2cc[nH]c(=O)c2C(=O)Nc2ccc(N3CCCC(C(C)(C)O)C3)cc2)cnc2c1NCCO2 (stereo not drawn) [Example 212, N-(4-(3-(2-hydroxypropan-2-yl)piperidin-1-yl)phenyl)-4-((8-methyl-2,3-dihydro-1H-pyrido[2,3-b][1,4]oxazin-7-yl)amino)-2-oxo-1,2-dihydropyridine-3-carboxamide] | ≤ 10 nM
6 | Cc1c(Nc2cc[nH]c(=O)c2C(=O)Nc2ccc(CN3CCN(C)CC3)c(C(F)(F)F)c2)cnc2c1NCCO2 [Example 213, 4-((8-methyl-2,3-dihydro-1H-pyrido[2,3-b][1,4]oxazin-7-yl)amino)-N-(4-((4-methylpiperazin-1-yl)methyl)-3-(trifluoromethyl)phenyl)-2-oxo-1,2-dihydropyridine-3-carboxamide] | 10 to 100 nM
7 | Cc1c(Nc2cc[nH]c(=O)c2C(=O)Nc2ccc(C3CCCN(C)C3)cc2)cnc2c1NCCO2 (stereo not drawn) [Example 214, 4-((8-methyl-2,3-dihydro-1H-pyrido[2,3-b][1,4]oxazin-7-yl)amino)-N-(4-(1-methylpiperidin-3-yl)phenyl)-2-oxo-1,2-dihydropyridine-3-carboxamide] | ≤ 10 nM
8 | Cc1c(Nc2cc[nH]c(=O)c2C(=O)Nc2ccc(N3CCN(C)CC3)c(C(=O)O)c2)cnc2c1NCCO2 [Example 215, 5-(4-((8-methyl-2,3-dihydro-1H-pyrido[2,3-b][1,4]oxazin-7-yl)amino)-2-oxo-1,2-dihydropyridine-3-carboxamido)-2-(4-methylpiperazin-1-yl)benzoic acid] | 100 to 1000 nM
9 | Cc1c(Nc2cc[nH]c(=O)c2C(=O)Nc2ccc(N3CCC(C(=O)O)CC3)cc2)cnc2c1NCCO2 [Example 216, 1-(4-(4-((8-methyl-2,3-dihydro-1H-pyrido[2,3-b][1,4]oxazin-7-yl)amino)-2-oxo-1,2-dihydropyridine-3-carboxamido)phenyl)piperidine-4-carboxylic acid] | 10 to 100 nM
10 | Cc1cc(NS(C)(=O)=O)ccc1NC(=O)c1c(Nc2cnc3c(c2C)NCCO3)cc[nH]c1=O [Example 217, 4-((8-methyl-2,3-dihydro-1H-pyrido[2,3-b][1,4]oxazin-7-yl)amino)-N-(2-methyl-4-(methylsulfonamido)phenyl)-2-oxo-1,2-dihydropyridine-3-carboxamide] | 100 to 1000 nM
11 | CCN1C(=O)C(C)(C)c2cc(NC(=O)c3c(Nc4cnc5c(c4C)NCCO5)cc[nH]c3=O)ccc21 [Example 218, N-(1-ethyl-3,3-dimethyl-2-oxoindolin-5-yl)-4-((8-methyl-2,3-dihydro-1H-pyrido[2,3-b][1,4]oxazin-7-yl)amino)-2-oxo-1,2-dihydropyridine-3-carboxamide] | 100 to 1000 nM
12 | Cc1c(Nc2cc[nH]c(=O)c2C(=O)Nc2ccc(N3CCN(C)[C@@H](C)C3)cc2)cnc2c1NCCO2 [Example 219, (S)-N-(4-(3,4-dimethylpiperazin-1-yl)phenyl)-4-((8-methyl-2,3-dihydro-1H-pyrido[2,3-b][1,4]oxazin-7-yl)amino)-2-oxo-1,2-dihydropyridine-3-carboxamide] | ≤ 10 nM
13 | Cc1c(Nc2cc[nH]c(=O)c2C(=O)Nc2ccc(N3CCN(C)[C@H](C)C3)cc2)cnc2c1NCCO2 [Example 220, (R)-N-(4-(3,4-dimethylpiperazin-1-yl)phenyl)-4-((8-methyl-2,3-dihydro-1H-pyrido[2,3-b][1,4]oxazin-7-yl)amino)-2-oxo-1,2-dihydropyridine-3-carboxamide] | ≤ 10 nM
14 | Cc1c(Nc2cc[nH]c(=O)c2C(=O)Nc2ccc3c(c2)NC(=O)CO3)cnc2c1NCCO2 [Example 221, 4-((8-methyl-2,3-dihydro-1H-pyrido[2,3-b][1,4]oxazin-7-yl)amino)-2-oxo-N-(3-oxo-3,4-dihydro-2H-benzo[b][1,4]oxazin-6-yl)-1,2-dihydropyridine-3-carboxamide] | 100 to 1000 nM
15 | Cc1c(Nc2cc[nH]c(=O)c2C(=O)Nc2cccc(N3CCN(C)CC3)c2)cnc2c1NCCO2 [Example 222, 4-((8-methyl-2,3-dihydro-1H-pyrido[2,3-b][1,4]oxazin-7-yl)amino)-N-(3-(4-methylpiperazin-1-yl)phenyl)-2-oxo-1,2-dihydropyridine-3-carboxamide] | 100 to 1000 nM
16 | Cc1c(Nc2cc[nH]c(=O)c2C(=O)Nc2ccc(S(C)(=O)=O)cc2)cnc2c1NCCO2 [Example 223, 4-((8-methyl-2,3-dihydro-1H-pyrido[2,3-b][1,4]oxazin-7-yl)amino)-N-(4-(methylsulfonyl)phenyl)-2-oxo-1,2-dihydropyridine-3-carboxamide] | 10 to 100 nM
17 | Cc1nc2cc(NC(=O)c3c(Nc4cnc5c(c4C)NCCO5)cc[nH]c3=O)ccc2[nH]1 [Example 224, N-(2-methyl-1H-benzo[d]imidazol-5-yl)-4-((8-methyl-2,3-dihydro-1H-pyrido[2,3-b][1,4]oxazin-7-yl)amino)-2-oxo-1,2-dihydropyridine-3-carboxamide] | 10 to 100 nM
18 | Cc1c(Nc2cc[nH]c(=O)c2C(=O)Nc2ccc(N3CCN(CCCS(C)(=O)=O)CC3)cc2)cnc2c1NCCO2 [Example 225, 4-((8-methyl-2,3-dihydro-1H-pyrido[2,3-b][1,4]oxazin-7-yl)amino)-N-(4-(4-(3-(methylsulfonyl)propyl)piperazin-1-yl)phenyl)-2-oxo-1,2-dihydropyridine-3-carboxamide] | ≤ 10 nM
19 | Cc1c(Nc2cc[nH]c(=O)c2C(=O)Nc2ccc(N3CCN(CCN4CCOCC4)CC3)cc2)cnc2c1NCCO2 [Example 226, 4-((8-methyl-2,3-dihydro-1H-pyrido[2,3-b][1,4]oxazin-7-yl)amino)-N-(4-(4-(2-morpholinoethyl)piperazin-1-yl)phenyl)-2-oxo-1,2-dihydropyridine-3-carboxamide] | ≤ 10 nM
20 | Cc1c(Nc2cc[nH]c(=O)c2C(=O)Nc2ccc(N3CCN(C)CC3)c(CN(C)C)c2)cnc2c1NCCO2 [Example 227, N-(3-((dimethylamino)methyl)-4-(4-methylpiperazin-1-yl)phenyl)-4-((8-methyl-2,3-dihydro-1H-pyrido[2,3-b][1,4]oxazin-7-yl)amino)-2-oxo-1,2-dihydropyridine-3-carboxamide] | ≤ 10 nM
21 | Cc1c(Nc2cc[nH]c(=O)c2C(=O)Nc2ccc(C[C@H]3COC(=O)N3)cc2)cnc2c1NCCO2 [Example 228, (S)-4-((8-methyl-2,3-dihydro-1H-pyrido[2,3-b][1,4]oxazin-7-yl)amino)-2-oxo-N-(4-((2-oxooxazolidin-4-yl)methyl)phenyl)-1,2-dihydropyridine-3-carboxamide] | 10 to 100 nM
22 | Cc1c(Nc2cc[nH]c(=O)c2C(=O)Nc2cnc(-n3nccn3)c(Cl)c2)cnc2c1NCCO2 [Example 229, N-(5-chloro-6-(2H-1,2,3-triazol-2-yl)pyridin-3-yl)-4-((8-methyl-2,3-dihydro-1H-pyrido[2,3-b][1,4]oxazin-7-yl)amino)-2-oxo-1,2-dihydropyridine-3-carboxamide] | 100 to 1000 nM
23 | Cc1c(Nc2cc[nH]c(=O)c2C(=O)Nc2ccc3c(c2)OCCO3)cnc2c1NCCO2 [Example 230, N-(2,3-dihydrobenzo[b][1,4]dioxin-6-yl)-4-((8-methyl-2,3-dihydro-1H-pyrido[2,3-b][1,4]oxazin-7-yl)amino)-2-oxo-1,2-dihydropyridine-3-carboxamide] | 10 to 100 nM
24 | Cc1c(Nc2cc[nH]c(=O)c2C(=O)Nc2ccc(S(=O)(=O)NC3CC3)cc2)cnc2c1NCCO2 [Example 231, N-(4-(N-cyclopropylsulfamoyl)phenyl)-4-((8-methyl-2,3-dihydro-1H-pyrido[2,3-b][1,4]oxazin-7-yl)amino)-2-oxo-1,2-dihydropyridine-3-carboxamide] | 10 to 100 nM
25 | Cc1c(Nc2cc[nH]c(=O)c2C(=O)Nc2ccc(CN3CCS(=O)(=O)CC3)cc2)cnc2c1NCCO2 [Example 232, N-(4-((1,1-dioxidothiomorpholino)methyl)phenyl)-4-((8-methyl-2,3-dihydro-1H-pyrido[2,3-b][1,4]oxazin-7-yl)amino)-2-oxo-1,2-dihydropyridine-3-carboxamide] | 10 to 100 nM
26 | Cc1c(Nc2cc[nH]c(=O)c2C(=O)Nc2ccc(Cc3ccncc3)cc2)cnc2c1NCCO2 [Example 233, 4-((8-methyl-2,3-dihydro-1H-pyrido[2,3-b][1,4]oxazin-7-yl)amino)-2-oxo-N-(4-(pyridin-4-ylmethyl)phenyl)-1,2-dihydropyridine-3-carboxamide] | 10 to 100 nM
27 | Cc1c(Nc2cc[nH]c(=O)c2C(=O)Nc2ccc3[nH]ncc3c2)cnc2c1NCCO2 [Example 234, N-(1H-indazol-5-yl)-4-((8-methyl-2,3-dihydro-1H-pyrido[2,3-b][1,4]oxazin-7-yl)amino)-2-oxo-1,2-dihydropyridine-3-carboxamide] | 10 to 100 nM

From US20250282794A1 (CURADEV PHARMA LTD, priority 2022, published 2025)
